US9695155B2, “Herbicidal substituted pyrimidinyloxy benzene compounds” (E. I. DU PONT DE NEMOURS AND COMPANY, priority 2013, dated 2017)

Legend:
[1] = tested on: barnyardgrass; assay: Test A preemergence; assay type: in vivo, Echinochloa crus-galli; settings: for Barnyardgrass plant response rating: approx. 10 days
Text: (§1) Seeds of plant species selected from barnyardgrass (Echinochloa crus-galli), kochia (Kochia scoparia), ragweed (common ragweed, Ambrosia elatior), Italian ryegrass (Lolium multiflorum), large (Lg) crabgrass (Digitaria sanguinalis), giant foxtail (Setaria faberii), morningglory (Ipomoea spp.), pigweed (Amaranthus retroflexus), velvetleaf (Abutilon theophrasti), wheat (Triticum aestivum), and corn (Zea mays) were planted into a blend of loam soil and sand and treated preemergence with a directed soil spray using test chemicals formulated in a non-phytotoxic solvent mixture which included a surfactant.
(§2) At the same time, plants selected from these crop and weed species and also blackgrass (Alopecurus myosuroides), and galium (catchweed bedstraw, Galium aparine) were planted in pots containing the same blend of loam soil and sand and treated with postemergence applications of test chemicals formulated in the same manner. Plants ranged in height from 2 to 10 cm and were in the one- to two-leaf stage for the postemergence treatment. Treated plants and untreated controls were maintained in a greenhouse for approximately 10 days, after which time all treated plants were compared to untreated controls and visually evaluated for injury. Plant response ratings, summarized in Table A, are based on a 0 to 100 scale where 0 is no effect and 100 is complete control. A dash (-) response means no test result.

[2] = tested on: large (Lg) crabgrass; assay: Test A preemergence; assay type: in vivo, Digitaria sanguinalis; settings: for Crabgrass, Large plant response rating: approx. 10 days
Text: as §1, §2

[3] = tested on: giant foxtail; assay: Test A preemergence; assay type: in vivo, Setaria faberii; settings: for Foxtail, Giant plant response rating: 0 to 100 scale, 0 no effect, 100 complete control, approx. 10 days
Text: as §1, §2

[4] = tested on: morningglory; assay: Test A preemergence; assay type: in vivo, Ipomoea spp.; settings: for Morningglory plant response rating: 0 to 100 scale, 0 no effect, 100 complete control, approx. 10 days
Text: as §1, §2

[5] = tested on: pigweed; assay: Test A preemergence; assay type: in vivo, Amaranthus retroflexus; settings: for Pigweed plant response rating: 0 to 100 scale, 0 no effect, 100 complete control, approx. 10 days
Text: as §1, §2

[6] = tested on: velvetleaf; assay: Test A preemergence; assay type: in vivo, Abutilon theophrasti; settings: for Velvetleaf plant response rating: 0 to 100 scale, 0 no effect, 100 complete control, approx. 10 days
Text: as §1, §2

[7] = tested on: wheat; assay: Test A preemergence; assay type: in vivo, Triticum aestivum; settings: for Wheat plant response rating: 0 to 100 scale, 0 no effect, 100 complete control, approx. 10 days
Text: as §1, §2

[8] = tested on: corn; assay: Test A preemergence; assay type: in vivo, Zea mays; settings: for Corn plant response rating: approx. 10 days
Text: as §1, §2

[9] = tested on: barnyardgrass; assay: Test A postemergence; assay type: in vivo, Echinochloa crus-galli
Text: as §1, §2

[10] = tested on: large (Lg) crabgrass; assay: Test A postemergence; assay type: in vivo, Digitaria sanguinalis
Text: as §1, §2

[11] = tested on: giant foxtail; assay: Test A postemergence; assay type: in vivo, Setaria faberii
Text: as §1, §2

[12] = tested on: morningglory; assay: Test A postemergence; assay type: in vivo, Ipomoea spp.
Text: as §1, §2

[13] = tested on: pigweed; assay: Test A postemergence; assay type: in vivo, Amaranthus retroflexus
Text: as §1, §2

[14] = tested on: velvetleaf; assay: Test A postemergence; assay type: in vivo, Abutilon theophrasti
Text: as §1, §2

[15] = tested on: wheat; assay: Test A postemergence; assay type: in vivo, Triticum aestivum
Text: as §1, §2

[16] = tested on: corn; assay: Test A postemergence; assay type: in vivo, Zea mays
Text: as §1, §2

[17] = 1000 g ai/ha, 0 to 100 scale, 0 no effect, 100 complete control
[18] = 125 g ai/ha, 0 to 100 scale where 0 is no effect and 100 is complete control
[19] = 500 g ai/ha, 0 to 100 scale, 0 no effect, 100 complete control
[20] = 500 g ai/ha, 0 to 100 scale where 0 is no effect and 100 is complete control

Fc1cnc(Oc2ccccc2-n2cccn2)nc1 [Compound 14]
Plant response rating, Barnyardgrass [1, 17]: 30 | Plant response rating, Crabgrass, Large [2, 17]: 90 | Foxtail, Giant plant response rating ([3]; 1000 g ai/ha): 90 | Morningglory plant response rating ([4]; 1000 g ai/ha): 20 | Pigweed plant response rating ([5]; 1000 g ai/ha): 100 | Velvetleaf plant response rating ([6]; 1000 g ai/ha): 90 | Wheat plant response rating ([7]; 1000 g ai/ha): 20 | Plant response rating, Corn [8, 17]: 0 | Plant response rating, Barnyardgrass [9, 17]: 20 | Plant response rating, Crabgrass, Large [10, 17]: 30 | Plant response rating, Foxtail, Giant [11, 17]: 40 | Plant response rating, Morningglory [12, 17]: 70 | Plant response rating, Pigweed [13, 17]: 100 | Plant response rating, Velvetleaf [14, 17]: 90 | Plant response rating, Wheat [15, 17]: 20 | Plant response rating, Corn [16, 17]: 20

N#Cc1cnn(-c2ccccc2Oc2ncc(Br)cn2)n1 [Compound 56]
Plant response rating, Barnyardgrass [1, 17]: 0 | Plant response rating, Crabgrass, Large [2, 17]: 80 | Foxtail, Giant plant response rating ([3]; 1000 g ai/ha): 30 | Morningglory plant response rating ([4]; 1000 g ai/ha): 0 | Pigweed plant response rating ([5]; 1000 g ai/ha): 100 | Velvetleaf plant response rating ([6]; 1000 g ai/ha): 90 | Wheat plant response rating ([7]; 1000 g ai/ha): 0 | Plant response rating, Corn [8, 17]: 20 | Plant response rating, Barnyardgrass [9, 17]: 30 | Plant response rating, Crabgrass, Large [10, 17]: 40 | Plant response rating, Foxtail, Giant [11, 17]: 30 | Plant response rating, Morningglory [12, 17]: 0 | Plant response rating, Pigweed [13, 17]: 90 | Plant response rating, Velvetleaf [14, 17]: 100 | Plant response rating, Wheat [15, 17]: 0 | Plant response rating, Corn [16, 17]: 20

N#Cc1cnn(-c2ccccc2Oc2ncc(Cl)cn2)n1 [Compound 55]
Plant response rating, Barnyardgrass [1, 17]: 40 | Plant response rating, Crabgrass, Large [2, 17]: 90 | Foxtail, Giant plant response rating ([3]; 1000 g ai/ha): 90 | Morningglory plant response rating ([4]; 1000 g ai/ha): 0 | Pigweed plant response rating ([5]; 1000 g ai/ha): 90 | Velvetleaf plant response rating ([6]; 1000 g ai/ha): 100 | Wheat plant response rating ([7]; 1000 g ai/ha): 0 | Plant response rating, Corn [8, 17]: 0 | Plant response rating, Barnyardgrass [9, 17]: 10 | Plant response rating, Crabgrass, Large [10, 17]: 40 | Plant response rating, Foxtail, Giant [11, 17]: 60 | Plant response rating, Morningglory [12, 17]: 80 | Plant response rating, Pigweed [13, 17]: 90 | Plant response rating, Velvetleaf [14, 17]: 100 | Plant response rating, Wheat [15, 17]: 0 | Plant response rating, Corn [16, 17]: 20

Clc1cnc(Oc2ccccc2-n2cc(Cl)nn2)nc1 [Compound 224]
Barnyardgrass plant response rating [1, 17]: 100 | Crabgrass, Large plant response rating [2, 17]: 100 | Foxtail, Giant plant response rating ([3]; 1000 g ai/ha): 100 | Morningglory plant response rating ([4]; 1000 g ai/ha): 90 | Pigweed plant response rating ([5]; 1000 g ai/ha): 100 | Velvetleaf plant response rating ([6]; 1000 g ai/ha): 100 | Wheat plant response rating ([7]; 1000 g ai/ha): 60 | Corn plant response rating [8, 17]: 40 | Plant response rating, Barnyardgrass [9, 17]: 90 | Plant response rating, Crabgrass, Large [10, 17]: 80 | Plant response rating, Foxtail, Giant [11, 17]: 90 | Plant response rating, Morningglory [12, 17]: 100 | Plant response rating, Pigweed [13, 17]: 100 | Plant response rating, Velvetleaf [14, 17]: 100 | Plant response rating, Wheat [15, 17]: 60 | Plant response rating, Corn [16, 17]: 50

COc1cccc(-n2cc(Br)cn2)c1Oc1ncc(Cl)cn1 [Compound 41]
Plant response rating, Barnyardgrass [1, 18]: 10 | Barnyardgrass plant response rating [1, 19]: 50 | Plant response rating, Crabgrass, Large [2, 18]: 30 | Crabgrass, Large plant response rating [2, 19]: 70 | Plant response rating, Foxtail, Giant [3, 18]: 10 | Foxtail, Giant plant response rating ([3]; 500 g ai/ha): 80 | Plant response rating, Morningglory [4, 18]: 0 | Morningglory plant response rating ([4]; 500 g ai/ha): 0 | Plant response rating, Pigweed [5, 18]: 70 | Pigweed plant response rating ([5]; 500 g ai/ha): 100 | Plant response rating, Velvetleaf [6, 18]: 60 | Velvetleaf plant response rating ([6]; 500 g ai/ha): 70 | Plant response rating, Wheat [7, 18]: 0 | Wheat plant response rating ([7]; 500 g ai/ha): 0 | Plant response rating, Corn [8, 18]: 0 | Corn plant response rating [8, 19]: 0 | Plant response rating, Barnyardgrass [9, 18]: 10 | Plant response rating, Barnyardgrass [9, 19]: 50 | Plant response rating, Crabgrass, Large [10, 18]: 20 | Plant response rating, Crabgrass, Large [10, 19]: 70 | Plant response rating, Foxtail, Giant [11, 18]: 20 | Plant response rating, Foxtail, Giant [11, 19]: 80 | Plant response rating, Morningglory [12, 18]: 20 | Plant response rating, Morningglory [12, 19]: 30 | Plant response rating, Pigweed [13, 18]: 50 | Plant response rating, Pigweed [13, 19]: 80 | Plant response rating, Velvetleaf [14, 18]: 70 | Plant response rating, Velvetleaf [14, 19]: 100 | Plant response rating, Wheat [15, 18]: 0 | Plant response rating, Wheat [15, 19]: 0 | Plant response rating, Corn [16, 18]: 0 | Plant response rating, Corn [16, 19]: 20

FC(F)(F)Oc1cccc(Oc2ncc(Cl)cn2)c1-n1cc(Br)cn1 [Compound 78]
Barnyardgrass plant response rating [1, 19]: 80 | Crabgrass, Large plant response rating [2, 19]: 100 | Foxtail, Giant plant response rating ([3]; 500 g ai/ha): 100 | Morningglory plant response rating ([4]; 500 g ai/ha): 20 | Pigweed plant response rating ([5]; 500 g ai/ha): 100 | Velvetleaf plant response rating ([6]; 500 g ai/ha): 50 | Wheat plant response rating ([7]; 500 g ai/ha): 10 | Corn plant response rating [8, 19]: 10 | Plant response rating, Barnyardgrass [9, 19]: 50 | Plant response rating, Crabgrass, Large [10, 19]: 100 | Plant response rating, Foxtail, Giant [11, 20]: 90 | Plant response rating, Morningglory [12, 20]: 90 | Plant response rating, Pigweed [13, 20]: 100 | Plant response rating, Velvetleaf [14, 20]: 100 | Plant response rating, Wheat [15, 20]: 20 | Plant response rating, Corn [16, 19]: 30
